In ChEMBL document CHEMBL4619827, “Design, Synthesis, and Biological Evaluation of Novel Acylhydrazone Derivatives as Potent Neuraminidase Inhibitors” (ACS Med Chem Lett, 2020):

Assay: Inhibition of clostridium perfringens neuraminidase using fluorescent substrate preincubated for 2 mins followed by substrate addition and measured after 1 hr by fluorescence based microplate reader analysis
In the case of `CCC(CC)O[C@@H]1C=C(C(=O)O)C[C@H](N)[C@H]1NC(C)=O` [OSELTAMIVIR CARBOXYLATE], the IC50 is reported as 17 µM. Molecule `O=C(NCCCN1CCOCC1)C(=O)N/N=C/c1cccc(COc2ccccc2[N+](=O)[O-])c1` has an IC50 of 86 µM. For `O=C(NCCCN1CCOCC1)C(=O)N/N=C/c1cccc(COc2ccc(Cl)cc2)c1`, the IC50 was 6.2 µM. Work on `O=C(NCCCN1CCOCC1)C(=O)N/N=C/c1cccc(COc2ccccc2Cl)c1` yielded an IC50 of 20.4 µM. With `COc1ccc(Br)cc1OCc1cccc(/C=N/NC(=O)C(=O)NCCCN2CCOCC2)c1` the IC50 was 7.31 µM. `COc1cc([N+](=O)[O-])ccc1OCc1cccc(/C=N/NC(=O)C(=O)NCCCN2CCOCC2)c1` gave an IC50 of 28.4 µM. Molecule `O=C(NCCCN1CCOCC1)C(=O)N/N=C/c1cccc(COc2ccc([N+](=O)[O-])cc2)c1` has an IC50 of 27.8 µM. With `O=C(NCCCN1CCOCC1)C(=O)N/N=C/c1cccc(COc2cc(F)ccc2[N+](=O)[O-])c1` the IC50 was 17.8 µM. `CC(=O)Nc1ccc(OCc2cccc(/C=N/NC(=O)C(=O)NCCCN3CCOCC3)c2)cc1` showed an IC50 of 73.4 µM. `COc1cccc(OCc2cccc(/C=N/NC(=O)C(=O)NCCCN3CCOCC3)c2)c1` gave an IC50 of 13.6 µM. Work on `O=C(NCCCN1CCOCC1)C(=O)N/N=C/c1cccc(COc2ccc(F)cc2)c1` yielded an IC50 of 5.29 µM. With `COc1ccccc1OCc1cccc(/C=N/NC(=O)C(=O)NCCCN2CCOCC2)c1` the IC50 was 47.8 µM. `O=C(NCCCN1CCOCC1)C(=O)N/N=C/c1cccc(COc2ccccc2F)c1` showed an IC50 of 21.6 µM. Work on `O=C(NCCCN1CCOCC1)C(=O)N/N=C/c1cccc(COc2cccc(Cl)c2)c1` yielded an IC50 of 22.1 µM. Molecule `COc1ccc(OCc2cccc(/C=N/NC(=O)C(=O)NCCCN3CCOCC3)c2)cc1` has an IC50 of 0.6 µM.
